Assay results as given in patent US10898469B2, “Imidazolylamide derivative” (Sumitomo Dainippon Pharma Co., Ltd., priority 2016, dated 2021).
Where a name gives a salt, the structure may show the parent alone. Read-outs that look alike come from different tables or passages of the source.

How the values were obtained:
Format in all cases: cell-based, human
HT-29 cells = assay: Inhibition test for sphere-forming ability of cancer cells (Test Example 1), HT-29; conditions: for IC50: concentration for 50% inhibition of cell proliferation, read-out: IC50 (μmol/L) HT-29 (Sphere IC50 value); for (100%-inhibition rate of cell proliferation) at 1 μmol/L, HT-29: value with %
Excerpt: (§1) The reliable methods established for measuring the self-renewal ability of cells which is one of the CSC's properties include a method for measuring the sphere-forming ability of cancer cells in non-adherent condition in the absence of serum (Cancer Res 65, 5506-5511 (2005)). Human colorectal cancer-derived HCT-116 cells, human colon-adenocarcinoma-derived HT-29 cells, and human pharyngeal cancer-derived FaDu cells were available from American Type Culture Collection (ATCC). HCT-116 cells and HT-29 cells were cultured at 37° C. under 5% CO2 using the McCoy's 5a medium containing 10% fetal bovine serum (FBS) and 1% penicillin/streptomycin, and FaDu cells were cultured at 37° C. under 5% CO2 using the MEM medium containing 10% FBS, 1% non-essential amino acid, 1% sodium pyruvate, and 1% penicillin/streptomycin. HCT-116 cells, HT-29 cells, and FaDu cells were seeded in a 384 Well Black Clear Bottom Ultra-Low Attachment Microplate (Corning Cat. No. 3827) in an amount of 350-800 cells/well using the DMEM/F12 medium containing 2% B27 supplement (GIBCO), 20 ng/mL epidermal growth factor (EGF) (peprotech), 10 ng/mL basic fibroblast growth factor (bFGF) (peprotech), 5 μg/mL insulin (Sigma), and 1% penicillin/streptomycin. Each test compound was added into each well to adjust the final concentration of DMSO to 0.1%, and the cells were cultured for 4 days. The number of viable cells in each well was then measured with CellTiter-Glo® Luminescent Cell Viability Assay (Promega) to calculate the concentration of each test compound for 50% inhibition of cell proliferation (Sphere IC50 value; μmol/L).
(§2) The experiment of Test Example 1 was performed for each compound of each Example. The concentration of each test compound for 50% inhibition of cell proliferation (Sphere IC50 value; μmol/L) is shown in the following Table.

HCT-116 cells = assay: Inhibition test for sphere-forming ability of cancer cells (Test Example 1), HCT-116; conditions: HCT-116 cells; for IC50: concentration for 50% inhibition of cell proliferation, read-out: IC50 (μmol/L) HCT-116 (Sphere IC50 value)
Excerpt: as §1, §2

FaDu cells = assay: Inhibition test for sphere-forming ability of cancer cells (Test Example 1), FaDu; conditions: for IC50: concentration for 50% inhibition of cell proliferation, read-out: IC50 (μmol/L) FaDu (Sphere IC50 value); for (100%-inhibition rate of cell proliferation) at 1 μmol/L, FaDu: value with %
Excerpt: as §1, §2

[1] = Homo sapiens, read-out: (100%-inhibition rate of cell proliferation) at 1 μmol/L, 1 μmol/L, value with %

SMILES	IC50 (HT-29 cells; Homo sapiens) [µmol/L]	IC50 (HCT-116 cells; Homo sapiens) [µmol/L]	IC50 (HT-29 cells) [µmol/L]	IC50 (HCT-116 cells) [µmol/L]	also measured
COCCOc1ccc(C(=O)Nc2cn(Cc3cccc(Cl)c3)cn2)cn1 [Example 244, N-[1-(3-Chlorobenzyl)-1H-imidazol-4-yl]-6-(2-methoxyethoxy)nicotinamide]	–	–	–	–	viability at 1 µM (HT-29 cells; [1]): 27%; viability at 1 µM (HCT-116 cells; [1]): 46.7%; viability at 1 µM (FaDu cells; [1]): 36.7%
O=C(/C=C/c1cccc(Oc2ccccc2)c1)Nc1cn(Cc2cccc(C(F)(F)F)c2)cn1 [Example 104]	0.79	2.09	–	–	IC50 (FaDu cells; Homo sapiens): 2.7 µmol/L
COc1ccc(C(=O)Nc2cn(Cc3c(F)ccc(C)c3F)cn2)cc1OC [Example 167]	–	–	–	–	(100%-inhibition rate of cell proliferation) at 1 μmol/L, HT-29 (HT-29 cells): 15.6%; (100%-inhibition rate of cell proliferation) at 1 μmol/L, HCT-116 (HCT-116 cells; 1 μmol/L, value with %): 30.5%; (100%-inhibition rate of cell proliferation) at 1 μmol/L, FaDu (FaDu cells): 59.3%
CCOc1ccc(/C=C/C(=O)Nc2cn(Cc3cccc(C(F)(F)F)c3)cn2)cn1 [Example 107]	0.04	> 10	–	–	IC50 (FaDu cells; Homo sapiens): 0.07 µmol/L
O=C(/C=C/c1cc(Cl)ccc1Cl)Nc1cn(Cc2cccc(Cl)c2)cn1 [Example 83]	–	–	0.6	0.8	IC50 (FaDu cells): 0.91 µmol/L
O=C(Nc1cn(Cc2cccc(Cl)c2)cn1)c1ccc2nccn2c1 [Example 176]	–	–	3.43	7.16	IC50 (FaDu cells): 5.16 µmol/L
O=C(Nc1cn(Cc2cccc(C(F)(F)F)c2)cn1)c1ccc(F)nc1 [Example 226]	–	–	–	–	(100%-inhibition rate of cell proliferation) at 1 μmol/L, HT-29 (HT-29 cells): 91.7%; (100%-inhibition rate of cell proliferation) at 1 μmol/L, HCT-116 (HCT-116 cells; 1 μmol/L, value with %): 45.7%; (100%-inhibition rate of cell proliferation) at 1 μmol/L, FaDu (FaDu cells): 87.9%
O=C(/C=C/c1cccc(C(F)(F)F)c1)Nc1cn(Cc2cccc(Cl)c2)cn1 [Example 60]	–	–	9.79	> 10	IC50 (FaDu cells): 8.2 µmol/L
O=C(Nc1cn(Cc2cccc(C(F)(F)F)c2)cn1)c1cc2ccccc2cn1 [Example 178]	–	–	8.13	9.6	–
C=Cc1ncc(C(=O)Nc2cn(Cc3cccc(C(F)(F)F)c3)cn2)cc1F [Example 99, 6-Ethenyl-5-fluoro-N-{1-[3-(trifluoromethyl)benzyl]-1H-imidazol-4-yl}nicotinamide]	2.52	6.12	–	–	–

More lines, main results first:

IC50 (HT-29 cells; Homo sapiens) [µmol/L]	IC50 (HCT-116 cells; Homo sapiens) [µmol/L]	IC50 (HT-29 cells) [µmol/L]	IC50 (HCT-116 cells) [µmol/L]	SMILES	also measured
8.77	3.84	–	–	O=C(/C=C/c1cc(O)ccc1O)Nc1cn(Cc2cccc(C(F)(F)F)c2)cn1 [Example 235, (2E)-3-(2,5-Dihydroxyphenyl)-N-{1-[3-(trifluoromethyl)benzyl]-1H-imidazol-4-yl}prop-2-enamide Hydrochloride]	–
–	–	2.84	6.05	O=C(Nc1cn(Cc2cccc(C(F)(F)F)c2)cn1)c1cc2cnccc2s1 [Example 194]	–
–	–	6.45	> 10	COc1ccc(NC(=O)c2cn(Cc3cc(F)c(F)c(F)c3)cn2)cn1 [Example 254]	–
5.46	4.35	–	–	COc1ccc(OC)c(/C=C/C(=O)Nc2cn(Cc3cccc(C(F)(F)F)c3)cn2)c1 [Example 233]	–
–	–	5.6	> 10	O=C(Nc1cn(Cc2cccc(C(F)(F)F)c2)cn1)c1cccnn1 [Example 182]	–
6.36	6.72	–	–	O=C(Nc1cn(Cc2cccc(C(F)(F)F)c2)cn1)c1ccc(-c2ccc(CO)nc2)cc1 [Example 246, 4-[6-(Hydroxymethyl)pyridin-3-yl]-N-{-[3-(trifluoromethyl)benzyl]-1H-imidazol-4-yl}benzamide]	–
–	–	9.07	8.16	O=C(Nc1cn(Cc2cccc(C(F)(F)F)c2)cn1)c1ccc2ncccc2n1 [Example 184]	–
–	–	4.64	4.94	COc1ccc(C(=O)Nc2cn(Cc3cccc(Cl)c3)cn2)c(OC)n1 [Example 189]	–
–	–	8.49	> 10	COc1ccc(NC(=O)c2cn(Cc3cccc(Cl)c3)cn2)cn1 [Example 263]	–
–	–	8	9.06	O=C(Nc1cn(Cc2cccc(C(F)(F)F)c2)cn1)c1cnc(Br)c(F)c1 [Example 227]	–
